Test results from patent US20260226010A1, “HETEROCYCLIC COMPOUNDS AS PI3Ka INHIBITORS” (Pikavation Therapeutics, Inc., priority 2023, published 2026).

Each compound was assayed on T47D (PIK3CA H1047R) cells (assay: pS473 AKT assay). Conditions: Homo sapiens; pSer473 AKT in T47D (PIK3CA H1047R) cells, 2 h treatment, DMEM with 2.5% FBS; read-out: T47D_IC50.
Format: cell-based
Protocol: T47D (PIK3CA H1047R) cells were cultured using 10-cm petri dishes with recommended medium plus 10% fetal bovine serum. One day before the assay, cells were seeded in 96-well plates. After overnight incubation, the medium was changed to DMEM with 2.5% fetal bovine serum (FBS) and the cells were treated with different concentrations of the compounds for 2 h. Cells were then fixed using 4% paraformaldehyde at room temperature for 20 min. Aspirate 4% paraformaldehyde, and wash cells using 1× regular phosphate buffered saline 3 times, 5 min each. Aspirate any residual phosphate buffered saline and block cells using 10% goat serum containing 1% bovine serum albumin and 0.3% Triton X-100 at room temperature for 1 h. Without any additional washing, primary antibodies (rabbit anti-pSer473 AKT) were diluted using blocking buffer and added at a final volume of 50 microliter per well. Keep assay plates with primary antibodies overnight at 4° C. Wash cells using 1× regular phosphate buffered saline 3 times, 5 min each. After the final wash, incubate cells with horseradish peroxidase-conjugated secondary antibodies (goat Anti-rabbit IgG) diluted using the same blocking buffer at room temperature for 1 h. Wash cells thoroughly using 1× regular phosphate buffered saline 3 times, 5 min each. Aspirate any residual phosphate buffered saline. Add Super-Signal ELISA Pico Chemiluminescent Substrate at a final volume of 100 microliter per well. Read plates on i3× Multi-Mode Microplate Reader and calculate IC50 values using GraphPad Prism software.
`Cc1cc2c(c(C(C)Nc3ccccc3C(=O)O)c1)CC1(CCc3ccccc31)N(C)C2=O` (stereo not shown) [Example 1, 2-[1-(2,7-Dimethyl-1-oxo-spiro[4H-isoquinoline-3,1′-indane]-5yl)ethylamino]benzoic acid] was tested, and the IC50 was less than 1000 nM. `Cc1cc2c(c(C(C)Nc3ccc(C)nc3C(=O)O)c1)CC1(CCc3ccccc31)N(C)C2=O` (stereo not shown) [Example 2, 3-[1-(2,7-Dimethyl-1-oxo-spiro[4H-isoquinoline-3,1′-indane]-5-yl)ethylamino]-6-methyl-pyridine-2-carboxylic acid] gave an IC50 of less than 1000 nM. In the case of `Cc1cc2c(c(C(C)Nc3ccc(Cl)nc3C(=O)O)c1)CC1(CCc3ccccc31)N(C)C2=O` (stereo not shown) [Example 3, 6-Chloro-3-[1-(2,7-dimethyl-1-oxo-spiro[4H-isoquinoline-3,1′-indane]-5-yl)ethylamino]pyridine-2-carboxylic acid], the IC50 is reported as less than 1000 nM. `Cc1cc2c(c(C(C)Nc3ccccc3C(=O)O)c1)CC1(Cc3ccccc3C1)N(C)C2=O` (stereo not shown) [Example 4, 2-[1-(2,7-Dimethyl-1-oxo-spiro[4H-isoquinoline-3,2′-indane]-5-yl)ethylamino]benzoic acid] showed an IC50 of 1000 to 5000 nM. Work on `Cc1cc2c(c(C(C)Nc3ccc(C)nc3C(=O)O)c1)CC1(Cc3ccccc3C1)N(C)C2=O` (stereo not shown) [Example 5, 3-((1-(2′,7′-Dimethyl-1′-oxo-1,1′,3,4′-tetrahydro-2′H-spiro[indene-2,3′-isoquinolin]-5′-yl)ethyl)amino)-6-methylpicolinic acid] yielded an IC50 of 1000 to 5000 nM. `Cc1cc2c(c(C(C)Nc3ccc(Cl)nc3-c3cnn(C)c3)c1)CC1(CCc3ccccc31)N(C)C2=O` (stereo not shown) [Example 6, 5-[1-[[6-Chloro-2-(1-methylpyrazol-4-yl)-3-pyridyl]amino]ethyl]-2,7-dimethyl-spiro[4H-isoquinoline-3,1′-indane]-1-one] gave an IC50 of less than 1000 nM. Compound `Cc1cc2c(c(C(C)Nc3ccc(Cl)nc3-c3ccncc3F)c1)CC1(CCc3ccccc31)N(C)C2=O` (stereo not shown) [Example 7, 5-[1-[[6-Chloro-2-(3-fluoro-4-pyridyl)-3-pyridyl]amino]ethyl]-2,7-dimethyl-spiro[4H-isoquinoline-3,1′-indane]-1-one] has an IC50 of less than 1000 nM.
